Results reported in publication PMC5309217, “Divergent Soybean Calmodulins Respond Similarly to Calcium Transients: Insight into Differential Target Regulation” (Frontiers in Plant Science, 2017).

How the values were obtained:
[1] = Steady-state Ca^2+ sensitivity of CaMs in the presence of NADK peptide; format: binding; settings: vs MLCK peptide
Procedure: (§1) The steady-state fluorescence measurements were performed using a Perkin-Elmer LS55 spectrofluorimeter at 20°C. The titration buffer consisted of 200 mM MOPS, 150 mM KCl, 2 mM EGTA (pH 7.0) ([Tikunova et al., 2002], [2010]; [Tikunova and Davis, 2004]). […] The free Ca^2+ concentration was calculated using the EGCA02 program by [Robertson and Potter (1984)]. The free Mg^2+ concentration was calculated using the MaxChelator program ([Bers et al., 2010]). Each reported Kd represents an average of at least three successive titrations ± standard error and fit with the Hill equation as previously described ([George et al., 1996]).
(§2) The Ca^2+ titrations in the presence of Mg^2+ were performed as described above with the addition of 3 mM Mg^2+ to the titration buffer.

[2] = target: T1, CaM binding domain of Arabidopsis thaliana NADK2 (Arabidopsis thaliana, UniProt Q9C5W3); assay: NADK peptide affinity for CaMs (intrinsic Trp of the peptide)
T1 construct: purchased Ohio Peptide LLC (Powell, OH); host or cells: chemical synthesis
Procedure: as §1, §2

IYVHSKEGVWRTSAMVSRWK [NADK peptide]
effect at sensitizing the CaMs to Ca^2+ compared to MLCK [1]: substantially weaker effect | binding of NADK peptide to CaMs in the absence of Ca^2+ ([2]; absence of Ca^2+, data not shown): did not bind | affinity of NADK peptide for Ca^2+-saturated CaMs compared to MLCK ([2]; vs MLCK peptide): weaker affinity

sCaM4: soybean CaM isoform 4; stress-induced CaM found in the soybean
Kd ([2]; read-out: NADK peptide affinity (Kd) for Ca^2+-saturated CaM, WT CaM titrated into 1 μM NADK peptide, 100 μM Ca^2+ (pCa = 4), 200 mM MOPS, 150 mM KCl, 2 mM EGTA, pH 7.0, 20°C, mean ± SE of at least three titrations): 760 ± 70 nM
